From PMC9518288, “The mechanism and pharmacodynamics of 2-((1H-indol-3-yl)thio/sulfinyl)-N-pheny acetamide derivative as a novel inhibitor against human respiratory syncytial virus” (Journal of Enzyme Inhibition and Medicinal Chemistry, 2022) come the findings set out here.

The subject of one assay is wtRSV in HEp-2 cells. The assay can be described thus: Time-of-addition assay (RT-qPCR). Format: cell-based, Human respiratory syncytial virus. To be noted: compound at 1 mM; wtRSV MOI 5, HEp-2; added at −1 to 14 h, RT-qPCR at 24 h post infection. The method, then:
The time-of-addition assay was performed as follows according to our previous work and literature[25]^,[27]. HEp-2 cells were plated in 96 well plates at 1.5 × 10^4 cells per well in 100 µL culture medium and incubated for 24 h (37 °C, 5% CO2). Then, HEp-2 cells were infected with wtRSV at a multiplication of infection (MOI) of 5 for 2 h (37 °C, 5% CO2). The cells were washed with PBS and the media containing drugs and compounds of 4–49 C, 1-HB-63, RSV-604, GS-5806 and Ribavirin at 1 mM, 200 μM, 10 μM, 1 mM and 100 μM, respectively, were added at −1, 0, 2, 4, 6, 8, 10, 12 and 14 h post infection. After the treated cells were further cultured and collected at 24 h post infection, the total RNA was isolated from the HEp-2 cells using TRIzol reagent (Thermo Fisher Scientific, Waltham, MA, USA) and reverse transcribed with GoScript Reverse Transcriptase kit (Promega, Madison, WI, USA). Then, RT-qPCR was performed as described previously.
Figure 2. Investigation on the underlying mechanism 4–49 C and 1-HB-63 inhibiting wtRSV replication. (A) Time-of-addition analyses of 4-49C and 1-HB-63 replication. The HEp-2 cells were infected with wtRSV at a multiplication of infection (MOI) of 5 for 2 h (37 °C, 5% CO2). The cells were washed with PBS and the media containing drug (4-49C, 1-HB-63, RSV-604, GS-5806 and Ribavirin at 1 mM, 200 μM, 10 μM, 1 mM and 100 μM, respectively.) were added at −1, 0, 2, 4, 6, 8, 10, 12 and 14 h separately and incubated till 24 h post infection. Then, the cells were harvested and lysed for RNA extraction and RT-qPCR assay. The results were a representative of three independent experiments, and shown as means ± standard and expressed as % negative control, although in many cases the bars for the standard deviation were obscured by the symbols given the small margin of values. (B) RSV adsorption analyses. […] After 24 h, we cotransfected RSV minigenome plasmid of pBR322B-RSV-Gluc with four auxiliary plasmids into BHK/T7 cells and detected the expression of Gluc in the supernatant. […]

In assay [1] the test system is RSV minigenome (pBR322B-RSV-Gluc) in BHK-T7 cells. Put plainly: RSV minigenome assay (Gluc expression). Format: cell-based, Human respiratory syncytial virus. To be noted: positive controls, concentration not given; BHK-T7, 24 h, vs DMSO. The method, then:
BHK-T7 cells were seeded into 24 well plates at a density of 2 × 10^4 cells/well and incubated for 24 h. Then the RSV minigenome plasmid encoding […] (pBR322B-RSV-Gluc) was mixed with the helper plasmids (pCITE-N, pCITE-P, pCITE-L and pCITE-M2-1) in an Eppendorf tube containing 250 μL Opti-MEM. Meanwhile, the transfection reagent of Lipofectamine 2000 (Invitrogen, CA, USA) was diluted in another tube containing 250 μL Opti-MEM and incubated 5 min at room temperature. Then, the plasmids were mixed with the transfection reagent and incubated at room temperature for 30 min. After that, the BHK-T7 culture media were replaced with the DNA-lipo-optiMEM mixture and incubated for 4 ∼ 6 h (37 °C, 5% CO2). Then the DNA-lipo-optiMEM mixture was replaced with media containing the compounds (4–49 C at 1 mM and 1-HB-63 at 200 μM) and further incubated for 24 h (37 °C, 5% CO2). Finally, after the supernatant of the BHK-T7 cells was transferred into 96 well plate, the Gluc activity was determined by using LUMI star (BMG ABTECH, Ortenberg, Germany) following the manufacturer’s instructions after adding the chromogenic substrate of Gaussia Luciferase Flex Assay Kit (NEB, Ipswich, USA). The results were recorded by photography and/or evaluated with OPTIMA software (BMG LABTECH). The resultant signal strength was quantified as relative light unit (RLU).
Figure 2. Investigation on the underlying mechanism 4–49 C and 1-HB-63 inhibiting wtRSV replication. (A) Time-of-addition analyses of 4-49C and 1-HB-63 replication. The HEp-2 cells were infected with wtRSV at a multiplication of infection (MOI) of 5 for 2 h (37 °C, 5% CO2). The cells were washed with PBS and the media containing drug (4-49C, 1-HB-63, RSV-604, GS-5806 and Ribavirin at 1 mM, 200 μM, 10 μM, 1 mM and 100 μM, respectively.) were added at −1, 0, 2, 4, 6, 8, 10, 12 and 14 h separately and incubated till 24 h post infection. Then, the cells were harvested and lysed for RNA extraction and RT-qPCR assay. The results were a representative of three independent experiments, and shown as means ± standard and expressed as % negative control, although in many cases the bars for the standard deviation were obscured by the symbols given the small margin of values. (B) RSV adsorption analyses. After HEp-2 cells seeded into 24 well plates for 24 h, the cold media containing RSV (5 MOI) and compounds of 4–49C, 1-HB-63 and P13 at 1 mM, 200 μM and 100 μM, respectively, was added and incubated for 1 h at 4 °C. Then, the total RNA was isolated and RT-qPCR was performed. (C) RSV minigenome assay. After 24 h, we cotransfected RSV minigenome plasmid of pBR322B-RSV-Gluc with four auxiliary plasmids into BHK/T7 cells and detected the expression of Gluc in the supernatant. […]

The structures appear in SMILES notation.

Turning to `Cc1cn2nc([C@@H]3CCCCN3C(=O)c3cc(Cl)ccc3NS(C)(=O)=O)cc2nc1N1CC[C@H](N)C1` [GS-5806, reference compound], the “time points of addition at which virus replication is inhibited” value with wtRSV in HEp-2 cells was “inhibition activity only when added up to 0 and 2 h”. Moreover, the “inhibition of expression of Gluc gene” value in assay [1] is “could not be inhibited”.

On to `NC(=O)c1ncn([C@@H]2O[C@H](CO)[C@@H](O)[C@H]2O)n1` [ribavirin, Ribavirin, reference compound], for which, in assay [1], the “inhibition of expression of Gluc gene” value is “sharply contrast”.
